Where two headings read alike, the source gives them in different places.
Tests used:
[1] = test system: Legionella pneumophilia; type: cell-based
[2] = test system: microbiological activity in shower apparatus; assay: Treatment of shower apparatus, microbiological activity / TVC; conditions: solution of around 250-500 ppm
Description: The fall in TVCs or “kill” of the micro-activity following use of the first biocidal product alone or following a combination of use of the first biocidal product and second acidic sequestering product is similar but the time before significant re-inoculation is extended when the combination of the first and second compositions are used. In areas of high water hardness, the potential for re-inoculation is much higher than in areas of low water hardness and therefore the benefit of using an acidic sequestering product in combination with the biocidal product is much higher.
The biocidial composition of the present invention results in a fall in TVC from a starting level of approximately 10^5 cfu/ml to 20-500 cfu/ml.

[3] = test system: Legionella; conditions: cited from earlier work
[4] = test system: Mycobacteria; conditions: against Mycobacteria; cited from earlier work
[5] = test system: Hepatatis; conditions: against Hepatatis; cited from earlier work
[6] = test system: HIV; conditions: against HIV; cited from earlier work
[7] = test system: aerobic counts of shower water; assay: Hadfield office shower head, Petrifilm aerobic count after biocide treatment; conditions: for Mb. Analyses Aerobic: 30 min contact
[8] = test system: yeast and mold counts of shower water; assay: Hadfield office shower head, Petrifilm yeast and mold count after biocide treatment; conditions: 30 min contact
[9] = 0.5% solution, 555 ppm, 8 days (192 hours) since biocide first added, (1) Resting (8 days), 16 °C
[10] = 0.5% solution, 555 ppm, 8 days (192 hours) since biocide first added, (2) Shower running, 10 °C
[11] = 0.5% solution, 555 ppm, 8 days (192 hours) since biocide first added, (3) Shower running, 15 °C
[12] = 0.5% solution, 555 ppm, 8 days (192 hours) since biocide first added, (4) Shower running, 20 °C
[13] = 0.5% solution, 555 ppm, 8 days (192 hours) since biocide first added, (5) Shower running, 25 °C
[14] = 0.5% solution, 555 ppm, 8 days (192 hours) since biocide first added, (6) Shower running, 30 °C
[15] = 0.5% solution, 555 ppm, 8 days (192 hours) since biocide first added, (7) Shower running, 35 °C
[16] = 0.5% solution, 555 ppm, 8 days (192 hours) since biocide first added, (8) Shower running, 40 °C
[17] = 0.5% solution, 555 ppm, 8 days (192 hours) since biocide first added, (9) Shower running - full heat, 41 °C
[18] = 0.5% solution, 565 ppm, 24 hours after biocide addition, (1) Resting, 15 °C
[19] = 0.5% solution, 565 ppm, 24 hours after biocide addition, (2) Shower running, 10 °C
[20] = 0.5% solution, 565 ppm, 24 hours after biocide addition, (3) Shower running, 15 °C
[21] = 0.5% solution, 565 ppm, 24 hours after biocide addition, (4) Shower running, 20 °C
[22] = 0.5% solution, 565 ppm, 24 hours after biocide addition, (5) Shower running, 25 °C
[23] = 0.5% solution, 565 ppm, 24 hours after biocide addition, (6) Shower running, 30 °C
[24] = 0.5% solution, 565 ppm, 24 hours after biocide addition, (7) Shower running, 35 °C
[25] = 0.5% solution, 565 ppm, 24 hours after biocide addition, (8) Shower running, 40 °C
[26] = 0.5% solution, 565 ppm, 24 hours after biocide addition, (9) Shower running, 41 °C
[27] = 0.5% solution, 565 ppm, 48 hours after biocide addition, (1) Resting, 16 °C
[28] = 0.5% solution, 565 ppm, 48 hours after biocide addition, (2) Shower running, 10 °C
[29] = 0.5% solution, 565 ppm, 48 hours after biocide addition, (3) Shower running, 15 °C
[30] = 0.5% solution, 565 ppm, 48 hours after biocide addition, (4) Shower running, 20 °C
[31] = 0.5% solution, 565 ppm, 48 hours after biocide addition, (5) Shower running, 25 °C
[32] = 0.5% solution, 565 ppm, 48 hours after biocide addition, (6) Shower running, 30 °C
[33] = 0.5% solution, 565 ppm, 48 hours after biocide addition, (7) Shower running, 35 °C
[34] = 0.5% solution, 565 ppm, 48 hours after biocide addition, (8) Shower running, 40 °C
[35] = 0.5% solution, 565 ppm, 48 hours after biocide addition, (9) Shower running, 41 °C
[36] = 0.05% solution, 5 ppm, 24 hours after biocide addition, (1) Resting, 18 °C
[37] = 0.05% solution, 5 ppm, 24 hours after biocide addition, (2) Shower running, 10 °C
[38] = 0.05% solution, 5 ppm, 24 hours after biocide addition, (3) Shower running, 15 °C
[39] = 0.05% solution, 5 ppm, 24 hours after biocide addition, (4) Shower running, 20 °C
[40] = 0.05% solution, 5 ppm, 24 hours after biocide addition, (5) Shower running, 25 °C
[41] = 0.05% solution, 5 ppm, 24 hours after biocide addition, (6) Shower running, 30 °C
[42] = 0.05% solution, 5 ppm, 24 hours after biocide addition, (7) Shower running, 35 °C
[43] = 0.05% solution, 5 ppm, 24 hours after biocide addition, (8) Shower running, 40 °C
[44] = 0.05% solution, 5 ppm, 24 hours after biocide addition, (9) Shower running - full heat, 43 °C
[45] = 0.05% solution, 5 ppm, 48 hours after biocide addition, (1) Resting, 17 °C
[46] = 0.05% solution, 5 ppm, 48 hours after biocide addition, (2) Shower running, 10 °C
[47] = 0.05% solution, 5 ppm, 48 hours after biocide addition, (3) Shower running, 15 °C
[48] = 0.05% solution, 5 ppm, 48 hours after biocide addition, (4) Shower running, 20 °C
[49] = 0.05% solution, 5 ppm, 48 hours after biocide addition, (5) Shower running, 25 °C
[50] = 0.05% solution, 5 ppm, 48 hours after biocide addition, (6) Shower running, 30 °C
[51] = 0.05% solution, 5 ppm, 48 hours after biocide addition, (7) Shower running, 35 °C
[52] = 0.05% solution, 5 ppm, 48 hours after biocide addition, (8) Shower running, 40 °C
[53] = 0.05% solution, 5 ppm, 48 hours after biocide addition, (9) Shower running - full heat, 42 °C

## CCCCCCCCCCCCN(CCCN)CCCN [Lonzabac 12.100, N-(3-aminopropyl)-N-dodecylpropane-1,3-diamine]
[1]; 100 ppm biocidal active, contact time 5 minutes
  Biocidal effect: Biocidal
[1]; 100 ppm biocidal active, contact time 10 minutes
  Biocidal effect: Biocidal
[1]; 100 ppm biocidal active, contact time 15 minutes
  Biocidal effect: Biocidal
[1]; 100 ppm biocidal active, contact time 30 minutes
  Biocidal effect: Biocidal
[1]; 200 ppm biocidal active, contact time 5 minutes
  Biocidal effect: Biocidal
[1]; 200 ppm biocidal active, contact time 10 minutes
  Biocidal effect: Biocidal
[1]; 200 ppm biocidal active, contact time 15 minutes
  Biocidal effect: Biocidal
[1]; 200 ppm biocidal active, contact time 30 minutes
  Biocidal effect: Biocidal
[1]; 300 ppm biocidal active, contact time 5 minutes
  Biocidal effect: Biocidal
[1]; 300 ppm biocidal active, contact time 10 minutes
  Biocidal effect: Biocidal
[1]; 300 ppm biocidal active, contact time 15 minutes
  Biocidal effect: Biocidal
[1]; 300 ppm biocidal active, contact time 30 minutes
  Biocidal effect: Biocidal
[1]; 500 ppm biocidal active, contact time 5 minutes
  Biocidal effect: Biocidal
[1]; 500 ppm biocidal active, contact time 10 minutes
  Biocidal effect: Biocidal
[1]; 500 ppm biocidal active, contact time 15 minutes
  Biocidal effect: Biocidal
[1]; 500 ppm biocidal active, contact time 30 minutes
  Biocidal effect: Biocidal
[1]; all concentrations (100-500 ppm), contact time as short as 5 minutes
  biocidal effect, summary of Table A: biocidal to Legionella at all concentrations
[2]
  sterilisation of shower compared with 5 parts per million of BCDMH (L8 recommendations): more effective sterilisation was achieved for a longer period
[3]
  concentration down to which effective: ≥ 0.05%
[4]
  concentration down to which effective: ≥ 0.05%
[5]
  concentration down to which effective: ≥ 0.05%
[6]
  concentration down to which effective: ≥ 0.05%
[7]; [9]
  Mb. Analyses Aerobic: 10^5 cols/ml
[7]; [10]
  Mb. Analyses Aerobic: 1 cols/ml
[7]; [11]
  Mb. Analyses Aerobic: 3 cols/ml
[7]; [12]
  Mb. Analyses Aerobic: No growth
[7]; [13]
  Mb. Analyses Aerobic: No growth
[7]; [14]
  Mb. Analyses Aerobic: 9 cols/ml
[7]; [15]
  Mb. Analyses Aerobic: 1 cols/ml
[7]; [16]
  Mb. Analyses Aerobic: No growth
[7]; [17]
  Mb. Analyses Aerobic: 2 cols/ml
[7]; [18]
  Mb. Analyses Aerobic: 60 cols/ml
[7]; [19]
  Mb. Analyses Aerobic: No growth
[7]; [20]
  Mb. Analyses Aerobic: No growth
[7]; [21]
  Mb. Analyses Aerobic: No growth
[7]; [22]
  Mb. Analyses Aerobic: No growth
[7]; [23]
  Mb. Analyses Aerobic: 1 cols/ml
[7]; [24]
  Mb. Analyses Aerobic: No growth
[7]; [25]
  Mb. Analyses Aerobic: 2 cols/ml
[7]; [26]
  Mb. Analyses Aerobic: No growth
[7]; [27]
  Mb. Analyses Aerobic: 520 cols/ml
[7]; [28]
  Mb. Analyses Aerobic: 8 cols/ml
[7]; [29]
  Mb. Analyses Aerobic: 2 cols/ml
[7]; [30]
  Mb. Analyses Aerobic: No growth
[7]; [31]
  Mb. Analyses Aerobic: No growth
[7]; [32]
  Mb. Analyses Aerobic: No growth
[7]; [33]
  Mb. Analyses Aerobic: No growth
[7]; [34]
  Mb. Analyses Aerobic: 1 cols/ml
[7]; [35]
  Mb. Analyses Aerobic: No growth
[7]; before inclusion of wetting agents and other functional components
  microbiological activity 8 days after treatment (Table 2): re-established itself
[8]; [9]
  Mb. Analyses Yeast/Mold: No growth
[8]; [10]
  Mb. Analyses Yeast/Mold: No growth
[8]; [11]
  Mb. Analyses Yeast/Mold: No growth
[8]; [12]
  Mb. Analyses Yeast/Mold: No growth
[8]; [13]
  Mb. Analyses Yeast/Mold: No growth
[8]; [14]
  Mb. Analyses Yeast/Mold: 1 yeast cols/ml
[8]; [15]
  Mb. Analyses Yeast/Mold: No growth
[8]; [16]
  Mb. Analyses Yeast/Mold: No growth
[8]; [17]
  Mb. Analyses Yeast/Mold: 1 yeast cols/ml
[8]; [18]
  Mb. Analyses Yeast/Mold: No growth
[8]; [19]
  Mb. Analyses Yeast/Mold: No growth
[8]; [20]
  Mb. Analyses Yeast/Mold: No growth
[8]; [21]
  Mb. Analyses Yeast/Mold: No growth
[8]; [22]
  Mb. Analyses Yeast/Mold: No growth
[8]; [23]
  Mb. Analyses Yeast/Mold: No growth
[8]; [24]
  Mb. Analyses Yeast/Mold: No growth
[8]; [25]
  Mb. Analyses Yeast/Mold: No growth
[8]; [26]
  Mb. Analyses Yeast/Mold: No growth
[8]; [27]
  Mb. Analyses Yeast/Mold: No growth
[8]; [28]
  Mb. Analyses Yeast/Mold: No growth
[8]; [29]
  Mb. Analyses Yeast/Mold: No growth
[8]; [30]
  Mb. Analyses Yeast/Mold: No growth
[8]; [31]
  Mb. Analyses Yeast/Mold: No growth
[8]; [32]
  Mb. Analyses Yeast/Mold: No growth
[8]; [33]
  Mb. Analyses Yeast/Mold: No growth
[8]; [34]
  Mb. Analyses Yeast/Mold: No growth
[8]; [35]
  Mb. Analyses Yeast/Mold: No growth

## CC1(C)C(=O)N(Cl)C(=O)N1Br [Omnia-Stat SP, 1-Bromo-3-chloro-5,5-dimethylhydantoin, reference compound]
[7]; [36]
  Mb. Analyses Aerobic: 480 cols/ml
[7]; [37]
  Mb. Analyses Aerobic: No growth
[7]; [38]
  Mb. Analyses Aerobic: 1 cols/ml
[7]; [39]
  Mb. Analyses Aerobic: 5 cols/ml
[7]; [40]
  Mb. Analyses Aerobic: 10 cols/ml
[7]; [41]
  Mb. Analyses Aerobic: 5 cols/ml
[7]; [42]
  Mb. Analyses Aerobic: 6 cols/ml
[7]; [43]
  Mb. Analyses Aerobic: No growth
[7]; [44]
  Mb. Analyses Aerobic: No growth
[7]; [45]
  Mb. Analyses Aerobic: 2600 cols/ml
[7]; [46]
  Mb. Analyses Aerobic: 3 cols/ml
[7]; [47]
  Mb. Analyses Aerobic: 3 cols/ml
[7]; [48]
  Mb. Analyses Aerobic: 5 cols/ml
[7]; [49]
  Mb. Analyses Aerobic: 9 cols/ml
[7]; [50]
  Mb. Analyses Aerobic: 2 cols/ml
[7]; [51]
  Mb. Analyses Aerobic: 10 cols/ml
[7]; [52]
  Mb. Analyses Aerobic: 6 cols/ml
[7]; [53]
  Mb. Analyses Aerobic: No growth
[7]; shower after 19 days resting, 5 ppm
  microbiological recovery after two days compared with the basic product (Table 3): considerably greater
[8]; [36]
  Mb. Analyses Yeast/Mold: No growth
[8]; [37]
  Mb. Analyses Yeast/Mold: No growth
[8]; [38]
  Mb. Analyses Yeast/Mold: No growth
[8]; [39]
  Mb. Analyses Yeast/Mold: 4 yeast cols/ml
[8]; [40]
  Mb. Analyses Yeast/Mold: 7 yeast cols/ml
[8]; [41]
  Mb. Analyses Yeast/Mold: 3 yeast cols/ml
[8]; [42]
  Mb. Analyses Yeast/Mold: 5 yeast cols/ml
[8]; [43]
  Mb. Analyses Yeast/Mold: No growth
[8]; [44]
  Mb. Analyses Yeast/Mold: No growth
[8]; [45]
  Mb. Analyses Yeast/Mold: 9 yeast cols/ml
[8]; [46]
  Mb. Analyses Yeast/Mold: 8 yeast cols/ml
[8]; [47]
  Mb. Analyses Yeast/Mold: 6 yeast cols/ml
[8]; [48]
  Mb. Analyses Yeast/Mold: 19 yeast cols/ml
[8]; [49]
  Mb. Analyses Yeast/Mold: No growth
[8]; [50]
  Mb. Analyses Yeast/Mold: 6 yeast cols/ml
[8]; [51]
  Mb. Analyses Yeast/Mold: No growth
[8]; [52]
  Mb. Analyses Yeast/Mold: 10 yeast cols/ml
[8]; [53]
  Mb. Analyses Yeast/Mold: 5 yeast cols/ml

Reference: patent US8894927B2, “Shower sterilisation system and method of use thereof” (Omnia-Klenz Ltd., priority 2010, dated 2014)
